From patent US20070173462A1, “Treatment of diseases associated with the use of antibiotics” (Optimer Pharmaceuticals, Inc., priority 2004, published 2007)
Like-named read-outs stand apart in the source and are kept apart here.

Experiments:
toxigenic C. difficile = assay: Hamster model of clindamycin-induced Clostridium difficile associated diarrhea/colitis; type: in vivo, Syrian hamsters; conditions: oral treatment for 7 days; untreated infection uniformly fatal between days two and six
Protocol: Animals were treated with two oral doses of clindamycin at 100 mg/kg. Three days after the second dose of clindamycin, they were inoculated with toxigenic C. difficile spores. […] Animals were observed daily for the presence or absence of diarrhea. Necropsies were performed on some animals that died during the experiment, and cecal contents were assayed for C. difficile toxin A. Hamsters were monitored for 20 days, and the cumulative mortality during this period was recorded (FIG. 1).

C. difficile = assay: MIC via agar dilution, 110 genetically distinct clinical isolates of C. difficile; type: cell-based

Cc1ncc([N+](=O)[O-])n1CCO [Metronidazole]
0.25 µg/mL: MIC (C. difficile; Clostridioides difficile, isolate ORG ID 61 5930, read-out: MIC) | MIC (C. difficile; Clostridioides difficile, isolate ORG ID 63 6029, read-out: MIC) | MIC (C. difficile; Clostridioides difficile, isolate ORG ID 64 5940, read-out: MIC) | MIC (C. difficile; Clostridioides difficile, isolate ORG ID 65 5967, read-out: MIC) | MIC (C. difficile; Clostridioides difficile, isolate ORG ID 67 6367, read-out: MIC) | MIC (C. difficile; Clostridioides difficile, isolate ORG ID 69 6370, read-out: MIC) | MIC (C. difficile; Clostridioides difficile, isolate ORG ID 70 6376, read-out: MIC) | MIC (C. difficile; Clostridioides difficile, isolate ORG ID 71 6379, read-out: MIC) | MIC (C. difficile; Clostridioides difficile, isolate ORG ID 72 6380, read-out: MIC) | MIC (C. difficile; Clostridioides difficile, isolate ORG ID 73 6382, read-out: MIC) | MIC (C. difficile; Clostridioides difficile, isolate ORG ID 76 6389, read-out: MIC) | MIC (C. difficile; Clostridioides difficile, isolate ORG ID 84 6331, read-out: MIC) | MIC (C. difficile; Clostridioides difficile, isolate ORG ID 88 6335, read-out: MIC) | MIC (C. difficile; Clostridioides difficile, isolate ORG ID 100 6353, read-out: MIC) | MIC (C. difficile; Clostridioides difficile, isolate ORG ID 104 6060, read-out: MIC) | MIC (C. difficile; Clostridioides difficile, isolate ORG ID 106 6078, read-out: MIC) | MIC (C. difficile; Clostridioides difficile, isolate ORG ID 115 5985, read-out: MIC) | MIC (C. difficile; Clostridioides difficile, isolate ORG ID 120 6057, read-out: MIC) | MIC (C. difficile; Clostridioides difficile, isolate ORG ID 121 6072, read-out: MIC) | MIC (C. difficile; Clostridioides difficile, isolate ORG ID 122 6111, read-out: MIC) | MIC (C. difficile; Clostridioides difficile, isolate ORG ID A1 1535, read-out: MIC) | MIC (C. difficile; Clostridioides difficile, isolate ORG ID AH1 3430, read-out: MIC) | MIC (C. difficile; Clostridioides difficile, isolate ORG ID BE1 4307, read-out: MIC) | MIC (C. difficile; Clostridioides difficile, isolate ORG ID BN1 1322, read-out: MIC) | MIC (C. difficile; Clostridioides difficile, isolate ORG ID BV1 1183, read-out: MIC) | MIC (C. difficile; Clostridioides difficile, isolate ORG ID BX1 4271, read-out: MIC) | MIC (C. difficile; Clostridioides difficile, isolate ORG ID CN1 667, read-out: MIC) | MIC (C. difficile; Clostridioides difficile, isolate ORG ID CP1 5491, read-out: MIC) | MIC (C. difficile; Clostridioides difficile, isolate ORG ID D1 1360, read-out: MIC) | MIC (C. difficile; Clostridioides difficile, isolate ORG ID J1 5971, read-out: MIC) | MIC (C. difficile; Clostridioides difficile, isolate ORG ID K1 4305, read-out: MIC) | MIC (C. difficile; Clostridioides difficile, isolate ORG ID R6 6015, read-out: MIC) | MIC90 (C. difficile; Clostridioides difficile, 110 clinical isolates, agar dilution)
0.15 µg/mL: MIC (C. difficile; Clostridioides difficile, 110 clinical isolates, agar dilution, read-out: Geometric Mean (MIC))
0.025 to 0.5 µg/mL: Range (MIC) (C. difficile; 110 clinical isolates, agar dilution)
0.5 µg/mL: MIC (C. difficile; Clostridioides difficile, isolate ORG ID 89 6336, read-out: MIC) | MIC (C. difficile; Clostridioides difficile, isolate ORG ID 98 6350, read-out: MIC) | MIC (C. difficile; Clostridioides difficile, isolate ORG ID W1 3931, read-out: MIC)
0.025 µg/mL: MIC (C. difficile; Clostridioides difficile, isolate ORG ID CJ1 893, read-out: MIC)
0.03 µg/mL: MIC (C. difficile; Clostridioides difficile, isolate ORG ID 78 6392, read-out: MIC) | MIC (C. difficile; Clostridioides difficile, isolate ORG ID 82 6329, read-out: MIC)
protected the animals from infection: protection from infection (cumulative mortality over 20 days) (toxigenic C. difficile)
0.06 µg/mL: MIC (C. difficile; Clostridioides difficile, isolate ORG ID 94 6343, read-out: MIC) | MIC (C. difficile; Clostridioides difficile, isolate ORG ID 101 6354, read-out: MIC) | MIC (C. difficile; Clostridioides difficile, isolate ORG ID BH1 4506, read-out: MIC)
